This note sets out measurements from patent US20100041756A1, “METHOD OF MODULATING B CELL FUNCTIONING” (priority 2004, published 2010).

Test [1] relates to DBA/1 mice with established collagen-induced arthritis. Kind of test: Effect of tranilast on established collagen-induced arthritis (Example 1). The test is classed as in vivo, mouse. As to conditions: for Histological score (mean ± SE): 10 days, score 0-3. On the procedure: FIG. 1 is a graphical representation of the amelioration of established collagen-induced arthritis (CIA) by intraperitoneal administration of tranilast. DBA/1 mice were immunised with bovine type II collagen in complete Freund's adjuvant in order to induce arthritis. After onset of clinical disease mice were randomly assigned to different treatment groups and given tranilast at 100, 200 or 400 mg/kg/day or vehicle control. Clinical scores were assessed throughout the treatment period using a clinical scoring system described in the Examples. The maximum possible score per mouse is 8. There were 7-10 mice per treatment group.
FIG. 2 is a graphical representation of the amelioration of established CIA by administration of tranilast. DBA/1 mice were immunised with bovine type II collagen in complete Freund's adjuvant in order to induce arthritis. After onset of clinical disease mice were randomly assigned to different treatment groups and given tranilast at 100, 200 or 400 mg/kg/day (i.p.) or vehicle control. Paw-swelling was measured throughout the treatment. There were 7-10 mice per treatment group.
Bovine CII was purified and prepared as previously described (9) and solubilised by stirring overnight at 4° C. in 0.1M acetic acid.
Male DBA/1 mice (7-8 animals/group) were immunised i.d. at 8-12 weeks of age with bovine CII (200 μg/mouse), emulsified in CFA (Difco Laboratories, West Moseley, UK). Beginning at 14 days after immunisation, mice were inspected daily for signs of arthritis and treatment was initiated on day 1 of arthritis. This research was approved by the local Ethical Review Process Committee and by the Home Office of the United Kingdom.
Tranilast was dissolved in 1% NaHCO3 by heating to 70° C. and injected i.p. at 100, 200 or 400 mg/kg/day.
The development of arthritis was assessed daily for the duration of the experiment. The clinical severity of arthritis was graded as follows, 0=normal, 1=slight swelling and/or erythema, 2=pronounced oedematous swelling. Each limb was graded, allowing a maximal clinical score of 8 for each animal. Swelling of hind paws was recorded with a pair of calipers. All clinical evaluations were performed in a blinded manner.
At the end of the treatment period the mice were killed, bled and their joints were processed for histology. The first limb to show clinical evidence of arthritis was removed, fixed, decalcified, and embedded before sectioning and staining with haemotoxylin and eosin. Saggital sections were examined by microscopy in a blinded fashion and joints were graded as follows: 0=normal; 1=mild synovitis without cartilage loss or bone erosion; 2=moderate or severe synovitis with erosions present but normal joint architecture intact; 3=severe synovitis with extensive erosions and normal joint architecture disrupted.
DBA/1 mice were immunised with bovine type II collagen in complete Freund's adjuvant in order to induce arthritis. After onset of clinical disease mice were randomly assigned to different treatment groups and given tranilast at 100, 200 or 400 mg/kg/day (i.p.) or vehicle control. Treatment was continued for 10 days after which time the mice were killed and paws were processed for histology. Joints were graded histologically in a blinded fashion.

Test [2] has as its system T cells stimulated with anti-CD3/anti-CD28. In words: Purified T cell proliferation, anti-CD3/anti-CD28, 3H-thymidine incorporation (Example 4). It counts as cell-based, mouse. How it is done: FIG. 10 is a graphical representation depicting that 3,4-DAA and 3-HAA inhibit B and T cell proliferation in vitro. Purified B and T cells were stimulated for 72 h with anti-CD40 (a), or anti-CD3/anti-CD28 (b) respectively, in the presence of varying doses of 3,4-DAA, or 3-HAA.
A single cell suspension was prepared from spleen by mincing through a cell strainer, and erythrocytes were lysed using an ammonium chloride solution (Sigma, St Louis, Mo., USA). B cells were positively enriched by using anti-IgM MACS microbeads, and T cells were positively enriched using anti-CD4 MACS microbeads and the MACS system, according to the manufacturer's guidelines (Miltenyi Biotec, Bergisch Gladbach, Germany). Purity was assessed by flow cytometric analysis (B cell>90% CD19+, T cell>90% CD4+). Cells were cultured at 5×10^5 cells/ml in 200 μl complete RPMI, as above, in a flat bottom 96-well plate and cultured for 72 h. B cells were stimulated with anti-CD40 monoclonal antibody (10 μg/ml; BD), and T cells were stimulated with 5 μg/ml plate-bound anti-CD3 (BD), 5 μg/ml soluble anti-CD28 (BD). Tranilast, 3-HAA, or vehicle (DMSO) were incubated at concentrations stated with the cultures. 48 hours after stimulation, 100 μl culture medium was collected, and cells were pulsed with 1 μCi ^3H thymidine per well for 18 h. Cells were then harvested and plates assessed for incorporation. Each assay was performed on a minimum of 3 occasions. Data shown is of one representative experiment, and is expressed as mean+/−SD of triplicate in culture. IFN-γ, IL-10 and IL-5 levels was assessed in the culture medium by ELISA, as above.
Background: Uptake of a labelled nucleoside into DNA is a usual measure of proliferation.

For `COc1ccc(/C=C/C(=O)Nc2ccccc2C(=O)O)cc1OC` [Tranilast, 2-[[3-(3,4-dimethoxyphenyl)-1-oxo-2-propenyl]amino]benzoic acid], the “Histological score (mean ± SE)” value in test [1] (100 mg/kg/day i.p.) came to 1.64 ± 0.35; in test [1] (200 mg/kg/day i.p.), 1.19 ± 0.35; in test [1] (400 mg/kg/day i.p.) it was 0.57 ± 0.20. Also, the clinical scores entry in test [1] (100, 200 or 400 mg/kg/day i.p., 10 days (FIG. 1)) is listed as “reduced clinical scores in a dose-dependent fashion”. For the same molecule, the paw-swelling entry in test [1] (100, 200 or 400 mg/kg/day i.p., 10 days (FIG. 2)) is “reduced paw-swelling in a dose-dependent fashion”. Also, the “synovitis, cartilage loss and bone erosion (histology)” value in test [1] (compared to control mice, end of 10 day treatment) was “reduced level of synovitis, cartilage loss and bone erosion”. In test [2] (Mus musculus, T-cell, anti-CD3/CD28, 72 h, 3H-thymidine (FIG. 10B), read-out: IC50 for inhibition of T cell proliferation), the IC50 was found to be 28 µM. The T cell proliferation entry in test [2] (anti-CD3/CD28, varying doses (FIG. 10B)) is reported as “dose-dependently inhibited”.
